Here are results for nine compounds from patent US9073961B2, “Substitution derivatives of N6 -benzyladenosine-5′-monophosphate, methods of preparation thereof, use thereof as medicaments, and therapeutic preparations containing these compounds” (UNIVERZITA PALACKEHO V OLOMOUCI, priority 2010, dated 2015).

Test [1] relates to HOS (human osteogenic sarcoma). Briefly: Calcein AM cytotoxicity assay, HOS. It counts as cell-based. The note with it: 72 hours incubation. The text has this: (§1) Because toxic compounds negatively influence metabolic processes in cells, many standard cytotoxicity assays are based on measurement of metabolisation rate of various artificial substrates. Resulting product is then quantified e.g. by means of spectrometry. The assays can be easily modified for use in 96-well plates. For evaluation of cytotoxic effect of the novel substituted 9-substituted cytokinin derivatives of this invention, a microtiter assay based on quantification of metabolisation of Calcein AM was used. The assay is widely used in drug screening programs and in chemosensitivity testing. In the living cells, Calcein AM is enzymatically hydrolysed and accumulation of resulting calcein is manifested by green fluorescence.
(§2) In the routine screening the following cell lines have been used: CEM (T-lymphoblastoid leukemia), HL-60 (promyelocytic leukemia), K-562 (human erythroleukemia), MCF-7 (breast carcinoma), HOS (human osteogenic sarcoma), and G-361 (human malignant melanoma). Normal human fibroblasts BJ were used as a control for routine screening of the compounds. The cells were kept in Nunc/Corning 80 cm^2 plastic bottles and grown in cell culture medium (DMEM containing 5 g/l glucose, 2 mM glutamine, 100 U/ml penicilline, 100 μg/ml streptomycine, 10% fetal bovine serum and sodium hydrogencarbonate), the compounds were prepared according to the procedure of the present invention.
(§3) The cell suspensions were prepared and diluted according to the particular cell type and the expected target cell density (2.500-30.000 cells per well based on cell growth characteristics) and pippetted (80 μl) into 96-well plates. Inoculates were allowed a pre-incubation period of 24 hours at 37° C. and 5% CO2 for stabilisation. Tested compound was added in total volume of 20 μl of water at time zero. Usually, test compound was evaluated at six 3-fold dilutions. In routine testing, the highest concentration tested was 166.7 μM. All drug concentrations were tested in triplicates. Incubations of cells with the test compounds lasted for 72 hours at 37° C., in 5% CO2 atmosphere and 100% humidity. At the end of incubation period Calcein AM in PBS was added into final concentration of 1 μg/ml. After another 1 hour of incubation fluorescence (FD) was measured with the Labsystem FIA Reader Fluoroscan Ascent (Microsystems). Tumor cell survival (TCS) was estimated using the following equation: […]=(FDdrug exposed well/FDcontrol well)×100%. The GI50 value, the drug concentration causing 50% reduction of esterase activity, was calculated from the obtained dose response curves (FIG. 1).
(§4) Cytoxicity of novel compounds was tested on panel of cell lines of different histogenetic and species origin (Table 3). […] The effective novel derivatives killed tumour cells in concentrations close to 0.1-50 μM.

In test [2] the test system is K-562 (human erythroleukemia). The test can be described thus: Calcein AM cytotoxicity assay, K-562. It counts as cell-based.
From the text: as §1, §2, §3, §4

In a further test the test system is MCF-7 (breast carcinoma). The test can be described thus: Calcein AM cytotoxicity assay, MCF7. Type of test: cell-based. To be noted: 72 hours incubation.
From the text: as §1, §2, §3, §4

Test [3] relates to Normal human fibroblasts BJ. The test can be described thus: Calcein AM cytotoxicity assay, BJ. It counts as cell-based. To be noted: 72 hours incubation.
From the text: as §1, §2, §3, §4

Test [4] has as its system CEM (T-lymphoblastoid leukemia). Briefly: Calcein AM cytotoxicity assay, CEM. It counts as cell-based. The note with it: 72 hours incubation, Calcein AM.
From the text: as §1, §2, §3, §4

Test [5] deals with HL-60 (promyelocytic leukemia). The test can be described thus: Calcein AM cytotoxicity assay, HL60. It counts as cell-based, human.
From the text: as §1, §2, §3, §4

The next test concerns Human lymphocytes. Briefly: Immunosuppressive activity, 3H-thymidine incorporation in concanavalin A activated lymphocytes. It counts as cell-based. The note with it: 72 hours, [3H]-TdR incorporation, read-out: Human lymphocytes ED50. The text has this:
One of the most important parameters of specific cellular immunity is the proliferative response of lymphocytes to antigens or polyclonal mitogens. The majority of normal mammalian peripheral lymphocytes comprise resting cells. Antigens or nonspecific polyclonal mitogens have the capacity to activate lymphoid cells and this is accompanied by dramatic changes of intracellular metabolism (mitochondrial activity, protein synthesis, nucleic acids synthesis, formation of blastic cells and cellular proliferation). […] Variety of in vitro assays was developed to measure proliferative response of lymphocytes. The most commonly used is ^3H-thymidine incorporation method.
During cell proliferation, DNA has to be replicated before the cell is divided into two daughter cells. This close association between cell doublings and DNA synthesis is very attractive for assessing cell proliferation. If labelled DNA precursors are added to the cell culture, cells that are about to divide incorporate the labelled nucleotide into their DNA. Traditionally, those assays usually involve the use of radiolabelled nucleosides, particularly tritiated thymidine ([^3H]-TdR). The amount of [^3H]-TdR incorporated into the cellular DNA is quantified by liquid scintillation counting.
Human heparinized peripheral blood was obtained from healthy volunteers by cubital vein punction. The blood was diluted in PBS (1:3) and mononuclear cells were separated by centrifugation in Ficoll-Hypaque density gradient (Pharmacia, 1.077 g/ml) at 2200 rpm for 30 minutes. Following centrifugation, lymphocytes were washed in PBS and resuspended in cell culture medium (RMPI 1640, 2 mM glutamine, 100 U/ml penicillin, 100 μg/ml streptomycin, 10% fetal calf serum and sodium bicarbonate).
The cells were diluted at target density of 1.100.000 cells/ml and were added by pipette (180 μl) into 96-well microtiter plates. Four-fold dilutions of the intended test concentration were added at time zero in 20 μl aliquots to the microtiter plate wells. Usually, test compound was evaluated at six 4-fold dilutions. In routine testing, the highest well concentration was 266.7 μM. All drug concentrations were examined in duplicates. All wells with exception of unstimulated controls were activated with 50 μl of concanavalin A (25 μg/ml). Incubations of cells with test compounds lasted for 72 hours at 37° C., in 5% CO2 atmosphere and 100% humidity. At the end of incubation period, the cells were assayed by using the [^3H]-TdR:
Cell cultures were incubated with 0.5 μCi (20 μl of stock solution 500 μCi/ml) per well for 6 hours at 37° C. and 5% CO2. The automated cell harvester was used to lyse cells in water and adsorb the DNA onto glass-fiber filters in the format of microtiter plate. The DNA incorporated [^3H]-TdR was retained on the filter while unincorporated material passes through. The filters were dried at room temperature overnight, sealed into a sample bag with 10-12 ml of scintillant. The amount of [^3H]-TdR present in each filter (in cpm) was determined by scintillation counting in a Betaplate liquid scintillation counter. The effective dose of immunosuppressant (ED) was calculated using the following equation: ED=(CCPMdrug exposed well/mean CCPMcontrol wells)×100%. The ED50 value, the drug concentration inhibiting proliferation of 50% of lymphocytes, was calculated from the obtained dose response curves.
To evaluate immunosuppressive activity of substituted adenines, their ability to inhibit polyclonal mitogen induced proliferation of normal human lymphocytes was analyzed (Table 4). […] Effective immunosuppressive dose of new derivatives under in vitro conditions was close to 10-40 μM.
A general note: Uptake of a labelled nucleoside into DNA is a usual measure of proliferation.

For test [6], the system named is cytokinin-dependent tobacco callus Nicotiana tabacum L. cv. Wisconsin 38. The test can be described thus: Growth of cytokinin-dependent tobacco callus. It counts as cell-based. To be noted: for Activity (%) [10^−5 mol · l^−1 KR = 100%]: at concentration with highest activity, relative to control cytokinin; for Concentration with highest activity: tobacco callus fresh weight after four weeks. The protocol:
Cytokinin effect of newly prepared derivatives was tested using cytokinin-dependent tobacco callus. The cytokinin-dependent tobacco callus Nicotiana tabacum L. cv. Wisconsin 38 was maintained at 25° C. in darkness on modified MS medium, containing per 1 liter: 4 μmol of nicotinic acid, 2.4 μmol of pyridoxine hydrochloride, 1.2 μmol of thiamine, 26.6 μmol of glycine, 1.37 μmol of glutamine, 1.8 μmol of myo-inositol, 30 g of sucrose, 8 g of agar, 5.37 μmol of NAA and 0.5 μmol of the compound tested. Subcultivation was carried out every three weeks. Fourteen days before the bioassay, the callus tissue was transferred to the media without 6-benzylaminopurine. The biological activity was determined from the increase of the fresh callus weight after four weeks of cultivation. Five replicates were prepared for each concentration of the compound tested and the entire test was repeated twice. […] The compounds to be tested were dissolved in dimethylsulfoxide (DMSO) and the solution brought up to 10^−3 M with distilled water. […] The stimulatory activity was calculated from the dose-dependent fresh weight callus growth curves.
From the obtained data, the concentration with the highest activity was selected for each compound tested. Relative activity of the compound at this concentration was calculated (Table 5). […]

Test [7] has as its system G-361 (human malignant melanoma). Briefly: Calcein AM cytotoxicity assay, G-361. It counts as cell-based. The note with it: 72 hours incubation.
From the text: as §1, §2, §3, §4

As for `Cc1ccccc1CNc1ncnc2c1ncn2[C@@H]1O[C@H](COP(=O)(O)O)[C@@H](O)[C@H]1O` [Compound 12, 6-(2-methylbenzylamino)purine riboside-5′-monophosphate], the GI50 (commonly the concentration giving 50% growth inhibition) in [1] is above 167 µM; in [2] (72 hours incubation) it was above 167 µM; with MCF-7 (breast carcinoma) it was above 167 µM; in [3], above 167 µM; in test [4], 14 µM; in [5] (72 hours incubation), 3.3 µM. In the test on Human lymphocytes, the EC50 turned out to be 7.3 µM. For the same compound, the “Activity (%) [10^−5 mol · l^−1 KR = 100%]” value (from here on “Activity (%)”) in test [6] came out at 108 ± 4%. Besides, the “Concentration with highest activity” value in test [6] is listed as 10^−6 mol · l^−1.
With `COc1ccccc1CNc1ncnc2c1ncn2[C@@H]1O[C@H](COP(=O)(O)O)[C@@H](O)[C@H]1O` [Compound 15, 6-(2-methoxybenzylamino)purine riboside-5-monophosphate], the GI50 in [1] is 21.2 µM; in test [2] (72 hours incubation), 11.2 µM; with MCF-7 (breast carcinoma), above 167 µM; in test [3], above 167 µM; in test [7], above 167 µM; in [4], 3.2 µM. Moreover, the GI50 in test [5] (72 hours incubation) was 2.3 µM. The “Activity (%)” value in test [6] is recorded as 108 ± 1%. In addition, in [6], the “Concentration with highest activity” value is 10^−5 mol · l^−1.
Consider `COc1cccc(CNc2ncnc3c2ncn3[C@@H]2O[C@H](COP(=O)(O)O)[C@@H](O)[C@H]2O)c1` [Compound 16, 6-(3-methoxybenzylamino)purine riboside-5′-monophosphate], for which the GI50 in test [1] was above 167 µM; in test [2] (72 hours incubation), above 167 µM; in the test with MCF-7 (breast carcinoma), above 167 µM; in test [3], above 167 µM; in test [7], above 167 µM; in [4] it was 7.6 µM. Besides, the GI50 in [5] (72 hours incubation) is 4.9 µM. In addition, the “Activity (%)” value in test [6] amounted to 102 ± 1%. Also, in test [6], the “Concentration with highest activity” value is 10^−6 mol · l^−1.
Regarding `O=P(O)(O)OC[C@H]1O[C@@H](n2cnc3c(NCc4ccc(O)cc4)ncnc32)[C@H](O)[C@@H]1O` [Compound 23, 6-(4-hydroxybenzylamino)purine riboside-5′-monophosphate], the GI50 in [1] was above 167 µM; in test [2] (72 hours incubation), above 167 µM; in the test with MCF-7 (breast carcinoma), above 167 µM; in test [3], above 167 µM; in test [7], above 167 µM; in test [4] it was 39.7 µM. In test [5] (72 hours incubation), the GI50 was 9.5 µM.
Turning to `COc1ccc(O)c(CNc2ncnc3c2ncn3[C@@H]2O[C@H](COP(=O)(O)O)[C@@H](O)[C@H]2O)c1` [Compound 29, 6-(2-hydroxy-5-methoxybenzylamino)purine riboside-5′-monophosphate], the GI50 in test [1] is 6.4 µM; in test [2] (72 hours incubation) it was 15.4 µM; in the test on MCF-7 (breast carcinoma), 21 µM; in test [3] it was 87.9 µM; in test [7], 12.3 µM; in test [4], 0.9 µM. Moreover, the concentration for 50% growth inhibition (GI50) in test [5] (72 hours incubation) is 0.54 µM.
Consider `O=P(O)(O)OC[C@H]1O[C@@H](n2cnc3c(NCc4cc(Cl)ccc4O)ncnc32)[C@H](O)[C@@H]1O` [Compound 47, 6-(2-hydroxy-5-chlorobenzylamino)purine riboside-5′-monophosphate], for which the GI50 in test [1] was 10.6 µM; in [2] (72 hours incubation), 15.7 µM; in the test with MCF-7 (breast carcinoma), 18 µM; in [3], 63.4 µM; in test [7] it was 12.5 µM; in test [4] it was 0.6 µM. In addition, the GI50 in test [5] (72 hours incubation) is 0.47 µM.
As for `O=P(O)(O)OC[C@H]1O[C@@H](n2cnc3c(NCc4cc(F)ccc4O)ncnc32)[C@H](O)[C@@H]1O` [Compound 48, 6-(2-hydroxy-5-fluorobenzylamino)purine riboside-5′-monophosphate], the GI50 in test [1] is 9.1 µM; in test [2] (72 hours incubation), 13.4 µM; with MCF-7 (breast carcinoma), 16 µM; in [3] it was 58.7 µM; in test [7] it was 10.7 µM; in [4], 0.5 µM. Also, in test [5] (72 hours incubation), the GI50 was 0.53 µM.
With `Nc1ncnc2c1ncn2[C@@H]1O[C@H](CO)[C@@H](O)[C@H]1O` [adenosine], the GI50 in test [1] (Homo sapiens) was above 167 µM; in test [2] (Homo sapiens, K562, 72 hours incubation), above 167 µM; with MCF-7 (breast carcinoma) (Homo sapiens), above 167 µM; in [3] (Homo sapiens, Fibroblast) it was above 167 µM; in test [7] (Homo sapiens), above 167 µM; in test [4] it was above 167 µM. The GI50 in test [5] (Homo sapiens, HL-60, 72 hours incubation) was above 167 µM.
With `C/C(=C\CNc1ncnc2c1ncn2[C@@H]1O[C@H](CO)[C@@H](O)[C@H]1O)CO` [zeatin riboside, reference compound], the GI50 (in [1]; in test [2] (72 hours incubation); in the test with MCF-7 (breast carcinoma); in test [3]; in test [7]; in test [4]) was above 167 µM throughout. Further, the GI50 in test [5] (72 hours incubation) is above 167 µM.
